Experimental data: patent publication US8518372B2, “Coronin 1 modulators for the treatment of autoimmune and Lymphoproliferative disorders and mycobacterial infections” (priority 2006, dated 2013)
Like-named read-outs stand apart in the source and are kept apart here.

Experiments:
[1] = tested on: M. bovis BCG in bone marrow derived macrophages; type: cell-based, mice; conditions: for lysosomal delivery of mycobacteria: infection 1 h, chase 3 h
Mycobacterium bovis BCG = type: cell-based
mycobacteria = test: Bacterial proliferation in presence or absence of calcineurin inhibitors; type: cell-based; conditions: FIG. 10h
macrophages [2] = test: Protein synthesis in macrophages; type: cell-based, mice
macrophages [3] = test: Macrophage viability
[4] = tested on: bone marrow derived macrophages; test: Calcium fluorimetry (Fluo3) in macrophages; type: cell-based, mice; conditions: Fluo-3, FIG. 10a

CC(=O)OCOC(=O)CN(CC(=O)OCOC(C)=O)c1ccccc1OCCOc1ccccc1N(CC(=O)OCOC(C)=O)CC(=O)OCOC(C)=O [BAPTA-AM]
lysosomal delivery of mycobacteria ([1]; BAPTA-AM 1 μM, FIG. 10c,d): virtually all mycobacteria were transported to lysosomes
survival of mycobacteria within macrophages (Mycobacterium bovis BCG; BAPTA-AM present, FIG. 10e): killed

C=CC[C@@H]1/C=C(\C)C[C@H](C)C[C@H](OC)[C@H]2O[C@@](O)(C(=O)C(=O)N3CCCC[C@H]3C(=O)O[C@H](/C(C)=C/[C@@H]3CC[C@@H](O)[C@H](OC)C3)[C@H](C)[C@@H](O)CC1=O)[C@H](C)C[C@@H]2OC [FK506, tacrolimus]
lysosomal delivery of mycobacteria ([1]; FK506 0.5 μM, FIG. 10g): complete relocation of mycobacteria to lysosomes
survival of mycobacteria within macrophages (Mycobacterium bovis BCG; wild type bone marrow derived macrophages, calcineurin inhibitor present, FIG. 10h): unable to survive within macrophages
bacterial proliferation (mycobacteria): identical in the presence or absence

C[C@@H]1C[C@@H]([C@H](O)CC2CC(=O)NC(=O)C2)C(=O)[C@@H](C)C1 [cycloheximide]
intracellular routing of mycobacteria [1]: did not result in alteration
survival of mycobacteria (Mycobacterium bovis BCG): did not result in alteration
protein synthesis (macrophages [2]): efficiently blocked protein synthesis
macrophage viability (macrophages [3]): without compromising macrophage viability

C[C@H](CCC(=O)O)C[C@H](C)C[C@H](C)C(=O)/C=C(\O)[C@H](C)C[C@H](C)C/C=C/[C@@H](C)[C@@H](O)[C@@H](C)[C@@H](O)C[C@@H]1CC[C@@](C)([C@H]2CC[C@@](C)([C@@H](C)O)O2)O1 [ionomycin]
cytosolic Ca2+ flux upon stimulation ([4]; coronin 1 deficient macrophages): no Ca^2+ flux was observed
cytosolic Ca2+ flux upon stimulation ([4]; macrophages from wild type mice): accompanied with a flux of cytosolic Ca^2+
